Source: publication PMC3909880 (Nature communications, 2013)

The compounds below were run on M. tuberculosis IAR2 mutant (mmpL3 S288T).
Type: cell-based, Mycobacterium tuberculosis

Row | Compound | MIC for IAR2 [µg/mL] | Fold change in MIC for IAR2
1 | NCC[C@H](O)C(=O)N[C@@H]1C[C@H](N)[C@@H](O[C@H]2O[C@H](CN)[C@@H](O)[C@H](O)[C@H]2O)[C@H](O)[C@H]1O[C@H]1O[C@H](CO)[C@@H](O)[C@H](N)[C@H]1O [Amikacin] | 1 | –
2 | CC[C@@H](CO)NCCN[C@@H](CC)CO [Ethambutol] | 1 | –
3 | NNC(=O)c1ccncc1 [Isoniazid] | 0.04 | –
4 | NC[C@H]1O[C@H](O[C@H]2[C@H](O)[C@@H](O[C@H]3O[C@H](CO)[C@@H](O)[C@H](N)[C@H]3O)[C@H](N)C[C@@H]2N)[C@H](O)[C@@H](O)[C@@H]1O [Kanamycin] | 2 | –
5 | C[C@H]1COc2c(N3CCN(C)CC3)c(F)cc3c(=O)c(C(=O)O)cn1c23 [Levofloxacin] | 0.25 | –
6 | CO[C@H]1/C=C/O[C@@]2(C)Oc3c(C)c(O)c4c(O)c(c(/C=N/N5CCN(C)CC5)c(O)c4c3C2=O)NC(=O)/C(C)=C\C=C\[C@H](C)[C@H](O)[C@@H](C)[C@@H](O)[C@@H](C)[C@H](OC(C)=O)[C@@H]1C [Rifampin] | 0.03125 | 0.25
7 | CC(C)=CCC/C(C)=C/CNCCNC1C2CC3CC(C2)CC1C3 (stereo not shown) [SQ109] | 4 | 16
8 | Capreomycin | 1 | –
